# “Also recorded” adds a separate entry of the source.
# How the values were obtained:
# recombinant human ARG2 = target: T1, recombinant human ARG2 (Homo sapiens, UniProt P78540); assay: Recombinant arginase activity assay, hARG2; format: biochemical; settings: 1 h at 37°C, pH 7.4, 10 mM L-arginine, urea detection; read-out: Inhibition of recombinant hARG2: IC50
# T1 construct: made in house; host or cells: E. coli
# T1 sequence (P78540 23-354): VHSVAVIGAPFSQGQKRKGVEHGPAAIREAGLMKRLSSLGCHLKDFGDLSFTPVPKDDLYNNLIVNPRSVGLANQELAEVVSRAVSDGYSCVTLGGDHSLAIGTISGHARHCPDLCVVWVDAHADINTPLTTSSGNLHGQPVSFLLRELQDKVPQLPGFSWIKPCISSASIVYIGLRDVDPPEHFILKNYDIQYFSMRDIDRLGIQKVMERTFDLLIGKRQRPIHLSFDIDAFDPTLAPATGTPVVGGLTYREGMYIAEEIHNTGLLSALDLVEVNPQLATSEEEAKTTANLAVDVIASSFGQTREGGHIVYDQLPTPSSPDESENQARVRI
# Experimental: The inhibitory activity towards hARG1 and hARG2 enzymes was assessed using recombinant enzymes biosynthesized using a prokaryotic expression system (E. coli) and purified by fast protein liquid chromatography (FPLC). Briefly, recombinant enzymes were incubated with the tested compounds for 1 h at 37°C in the reaction buffer (100 mM sodium phosphate buffer, 130 mM NaCl, 1 mg/mL BSA, pH 7.4) containing substrate (10 mM L-arginine hydrochloride) and cofactor (200 µM MnCl2). The assay is based on the detection of urea, which is generated during the conversion of L-arginine into L-ornithine catalyzed by arginases. To visualize the product, we adding a mixture of reagent A (4 mM oPA, 50 mM boric acid, 1 M sulfuric acid, 0.03% Brij-35) and reagent B (4 mM NED, 50 mM boric acid, 1 M sulfuric acid, 0.03% Brij-35) in equal proportions. The absorbance was measured at 515 nm. The urea production in the absence of any tested compound was considered as maximal enzyme activity. The absorbance in the absence of arginase (background) was considered as zero activity. Two reference compounds OAT-81 (ABH, no. 222638-65-5) and OAT-90 (2-amino-6-borono-2-(2-(3-(2,4-dichlorophenyl)propyloamino)ethyl) hexanoic acid, and two novel inhibitors OAT-1617 and OAT-1746 (the last three synthesized at OncoArendi Therapeutics) were tested. Normalized values were analyzed using GraphPad Prism 7.0 software and the IC50 values were determined.
# primary murine microglia = assay: Viability assay, primary microglia; format: cell-based, mouse; settings: 24 h, concentrations up to 1000 µM
# Experimental: Cell viability was assessed using MTT metabolism assay (U87 and BV2 cells) or MTS CellTiter 96® AQueous One Solution Cell Proliferation Assay (Promega) for the primary murine microglia cultures. Cells were cultured either in 96-well plates (U87 at density of 1×10^4) or 24-well plates (BV2 at density of 4×10^4 and primary microglia 8×10^4) with the indicated concentrations of the inhibitor or H2O (vehicle) for 24 h. MTT solution (Sigma Aldrich) was added to each well to a final concentration of 0.5 mg/mL. After 1 h of incubation at 37°C, water-insoluble dark blue formazan crystals were dissolved in DMSO. Optical densities (OD) were measured at 570 and 620 nm using a scanning multiwell spectrophotometer. The MTT assay was performed according to the manufacturer’s protocol. All measurements were carried out on three independent cell passages, in triplicates.
# [1] = Drug concentration in brain by LC-MS; format: in vivo, mouse; settings: GL261-bearing mice, 50 mg/kg oral twice a day, 14 days, 2 h after last dose
# Experimental: Blood plasma, as well as the brain samples (from control and treated animals), were prepared for liquid chromatography coupled with mass spectrometry (LC-MS) by homogenization in 5% trichloroacetic acid (TCA) and the concentration of L-arginine – the substrate of arginase – was determined. In the urea cycle, arginase cleaves arginine to produce urea and ornithine. Ornithine reacts with carbamoyl phosphate to form citrulline. The brain homogenates prepared for arginine measurements, as well as plasma samples were also analyzed by LC-MS to determine the concentration of the drug, which was administered to animals 2 h before the euthanasia.
# U87-MG glioma cells = assay: Matrigel invasion assay, U87-MG co-cultured with BV2 microglia; format: cell-based, human
# Experimental: (§1) BV2 cells were plated onto a 24-well plate at the density of 4×10^4. After 24 h, the invasion assay was performed with tissue culture inserts (6.5 mm Transwell® with 8.0 µm Pore Polycarbonate Membrane Insert, Corning, NY, USA) coated with the Growth Factor Reduced Matrigel™ Matrix (BD Biosciences, San Diego. CA, USA). The Matrigel™ Matrix (50 µL of 1 mg/mL stock solution diluted in fresh DMEM) was dried under sterile conditions (37°C) for 5–6 h. The medium in BV2 cultures was replaced with fresh one 1 h before seeding glioblastoma cells onto the inserts, then LN18 and U87 glioblastoma cells were seeded at 2×10^4/insert on Matrigel-covered membranes in a serum-reduced medium (2% FBS). Untreated glioblastoma cells co-cultured with or without BV2 cells served as positive and negative controls, respectively. Cells were treated with the arginase-1 inhibitors OAT-90, OAT-1617 and OAT-1746 solved in PBS. The cultures were kept in incubator at 37°C with humidified air containing 5% CO2. After 18 h cells were fixed in ice-cold methanol and cell nuclei stained with DAPI (4′,6-Diamidino-2-Phenylindole; 1 µg/mL, Sigma). The membranes from Transwell® inserts were cut out and images were acquired using a fluorescence microscope (Leica DM4000B, 10x lens) from the 5 independent fields (bottom; top; left; right side and the middle). Numbers of invading cells were counted using the ImageJ software (NIH, Bethesda, MD, USA). All experiments were performed three times, in duplicates.
# ARG1/2 = system: ARG1/2; design: method as in PMID 31278254; settings: cited from earlier work
# LN18 glioma cells = assay: Matrigel invasion assay, LN18 co-cultured with BV2 microglia; format: cell-based, human; settings: 11 µM, co-culture with BV2, 18 h
# Experimental: as §1, with “After 18 h cells were fixed in ice-cold methanol and cell nuclei stained with DAPI (4′,6-Diamidino-2-Phenylindole; 1 µg/mL, Sigma).” left out, “All experiments were performed three times, in duplicates.” left out
structure (smiles),measurement,setting,value
CN(C)C[C@@H]1CC[C@@H](CCB(O)O)C[C@]1(N)C(=O)O [OAT-1746],IC50,recombinant human ARG2,49 nM
same,viability of primary murine microglia (toxicity),primary murine microglia,not toxic
same,OAT-1746 in the brain (crossing of the BBB),[1],detected in the brain extracts
same,microglia-induced invasion of U87-MG cells,"U87-MG glioma cells; 11 µM, co-culture with BV2, 18 h",effectively reduced glioma invasion; also recorded: reduced microglia-induced invasion of glioma cells more efficiently
same,concentration dependence of the inhibitory effect on glioma invasion,"U87-MG glioma cells; 0.1 and 11 µM, U87-MG with BV2",concentration-dependent
same,inhibition of ARG1/2,ARG1/2,low nanomolar concentrations
same,microglia-induced invasion of LN18 cells,LN18 glioma cells,effectively reduced glioma invasion; also recorded: reduced microglia-induced invasion of glioma cells more efficiently
